One data set relates to CHOK1 GS cells. Put plainly: CellTiter-Glo cytotoxicity assay in CHOK1 GS cell line. It counts as cell-based, Chinese hamster. To be noted: Cricetulus griseus. Here is the method:
To assay the potential toxicity induced in the CHO cell culture by the Trp degradation products found in this study, a cytotoxicity assay CellTiter-Glo® Luminescent Cell Viability Assay (Cat #G7572, Promega, Madison, WI, USA) was used, following the manufacturer’s instructions. Briefly, the cells were seeded with 25,000 viable cells per cavity of a 96-well opaque white cell culture plate (Thermo Fisher, Waltham, MA, USA) in 80 µL of a pre-warmed medium. […] A DMSO control was added in the same concentration range as the tryptophan degradation compounds were diluted.

In a further data set the test system is CHOK1 cells. In words: CellTiter-Glo cytotoxicity assay in CHOK1 cell line. It counts as cell-based, Chinese hamster. To be noted: Cricetulus griseus. The procedure: (§1) To assay the potential toxicity induced in the CHO cell culture by the Trp degradation products found in this study, a cytotoxicity assay CellTiter-Glo® Luminescent Cell Viability Assay (Cat #G7572, Promega, Madison, WI, USA) was used, following the manufacturer’s instructions. Briefly, the cells were seeded with 25,000 viable cells per cavity of a 96-well opaque white cell culture plate (Thermo Fisher, Waltham, MA, USA) in 80 µL of a pre-warmed medium. Tryptophan degradation compounds were added in triplicates to the cells, ranging from 1 mM to 46 nM. A DMSO control was added in the same concentration range as the tryptophan degradation compounds were diluted. The dose response curves were fitted with a 4PL model by GraphPad Prism v.7 (GraphPad Software, San Diego, CA, USA) after luminescence readout with an EnVision 2104 Multilabel Reader (Perkin Elmer, Waltham, MA, USA).

The subject of a further data set is CHOZN 6 cells. In words: CellTiter-Glo cytotoxicity assay in CHOZN 6 cell line. The format is cell-based, Chinese hamster. To be noted: Cricetulus griseus, read-out: [GI50] CHOZN 6. The procedure:
as §1
A general note: Cellular ATP, detected with luciferase, serves as a proxy for viable cell number.

Another data set concerns CHOZN 10 cells. In words: CellTiter-Glo cytotoxicity assay in CHOZN 10 cell line. It counts as cell-based, Chinese hamster. To be noted: Cricetulus griseus, read-out: [GI50] CHOZN 10. The procedure:
as §1

The next data set concerns CHO cells. In words: CHO cell toxicity summarised across the four CHO cell lines. It counts as cell-based, Chinese hamster. To be noted: Cricetulus griseus, read-out: GI50 across all cell lines. Here is the method:
as §1

Data set [1] in a line: Color measurement (ΔE*) of standards spiked into water. It counts as physicochemical. To be noted: theoretical 500 µM, 1% DMSO, ΔE* > 1 deemed significant. The procedure:
(§2) Compounds were dissolved in DMSO at 50 mM and then spiked into the solutions to achieve a final compound concentration of 500µM. Some of the tested compounds formed a precipitate immediately upon spiking of the DMSO solution. As the precipitates in solution can interfere with the absorption measurement, each sample was centrifuged prior to taking absorption measurements, meaning that the final concentrations were not all at 500 µM. […] In stability experiments, eight of these nine compounds (all except 46) were present in at least one condition in the degraded water samples, and four of these nine compounds (28, 31, 38, and 46) were present in the degraded feed.
(§3) Absorbance measurements were taken in the range of 380 nm to 780 nm (20 nm steps) of 100 µL of the samples in four technical replicates (Envision, Perkin Elmer, Waltham, MA, USA). From the absorbance values, the change in color was calculated using L*a*b* and ΔE* values according to DIN 5033-3 and DIN 6174 norms. The CIE 1931 standard observer (2°) and the D65 illuminant were selected.
(§4) Chemical standards were prepared as 50 mM stocks in DMSO and then spiked into the aqueous solutions (either water or feed) to achieve a theoretical compound concentration of 500 µM (1% DMSO). The solutions were centrifuged, and the absorbance measurements of these solutions was measured and converted to ΔE* values as described above. The control condition was pure DMSO (1% v/v).

A short description of data set [2]: Color measurement (ΔE*) of standards spiked into feed. It counts as physicochemical. To be noted: theoretical 500 µM, 1% DMSO, ΔE* > 1 deemed significant. Here is the method:
as §2, §3, §4

The test system of the next data set is human cancer cell lines. Set-up: method as in PMID 24930832. To be noted: cited from earlier work.
The next data set deals with bacteria. On the set-up: method as in PMID 24930832. To be noted: cited from earlier work.
Data set [3] can be described thus: Degradation of tryptophan in water under stressed conditions. To be noted: 10 mM Trp in water pH 7, 70 °C, after 24 days. The format is physicochemical. The procedure: For the Trp solutions, 10 mM Trp solutions were prepared in water with a pH adjustment to pH 7.0 ± 0.3 using NaOH(aq.) and sterile filtered with Steriflip® filter units (Merck, Darmstadt, Germany). For H2O2 exposure testing, the solutions were spiked with hydrogen peroxide (30%, 8.82 M) to 0, 10, 25, 50, or 100 mM, and stored for 4h at RT (~19–23 °C), light-protected. For the UV exposure effects, the solutions were stored for 4 h under a UV-lamp set to an intensity of 540 V (UV-A, -B and -C radiation). Samples tested for temperature effects were stored light-protected for 24 days at 4 °C, room temperature (RT, i.e., ~19–23 °C), 37 °C, or 70 °C. Feed solutions were sterile-filtered as above and stored for 98 days at 4 °C, RT (~19–23 °C) or 37 °C. The samples were either stored light-protected or exposed to laboratory fluorescent lighting with partial exposure to glass-filtered daylight (light-exposed). For testing the a-ketoglutaric acid effects in feed, dry powder feed was reconstituted with a-ketoglutaric acid, pH adjusted to 7.0 ± 0.3 with NaOH (aq.), filtered as above, and stored light-protected at RT (~19–23 °C) or 37 °C for 98 days. Ammonia was quantified using Cedex Bio HT (Roche, Mannheim, Germany). Aliquots were frozen at −20 °C for subsequent amino acid analysis and LC-MS.
Amino acid analysis was performed using a pre-column derivatization using the AccQ Tag® Ultra Reagent kit. […]

Data set [4] has as its system cancerous and non-cancerous human cell lines. On the set-up: method as in PMID 28720329, PMID 22819942, PMID 32792961. To be noted: wide range of human cell lines; cited from earlier work.

Where two headings read alike, the source gives them in different places.

A word on the GI50: it is the concentration that inhibits growth by half.

With `c1ccc2c(-c3nccc4c3[nH]c3ccccc34)c[nH]c2c1` [Compound 34, 1-(1H-Indol-3-yl)-9H-pyrido[3,4-b]indole], the 50% growth inhibitory concentration (GI50) in the data set on CHOK1 GS cells (CHO-K1, CHOK1 GS cell line, 1 mM to 46 nM, 4PL fit, read-out: [GI50] CHOK1 GS) is 24 µM; in the data set with CHOK1 cells (CHO-K1, CHOK1 cell line, 1 mM to 46 nM, 4PL fit, read-out: [GI50] CHOK1), 10.6 µM; in the data set on CHOZN 6 cells (CHOZN 6 cell line, 1 mM to 46 nM, 4PL fit) it was 12.3 µM; in the data set with CHOZN 10 cells (CHOZN 10 cell line, 1 mM to 46 nM, 4PL fit), 13.1 µM; in the data set with CHO cells (across all four CHO cell lines), 10 to 22 µM. Besides, in data set [1], the “Color change as measured by ΔE* in water” value is reported as “significant color change”. Besides, the “Color change as measured by ΔE* in feed” value in data set [2] is “significant color change”. The “toxicity in human cancer cell lines” value in the data set with human cancer cell lines is given as “some toxicity”. Further, the antibacterial activity entry in the data set with bacteria was “most potent as an antibacterial agent”.
In turn, `N[C@@H](Cc1c[nH]c2ccccc12)C(=O)O` [Trp, L-Tryptophan] had a Trp total loss in data set [3] of 42%.
Regarding `O=C1c2ccccc2-n2c1nc1ccccc1c2=O` [Compound 39, Tryptanthrin], the GI50 in the data set with CHOK1 GS cells (CHO-K1, read-out: [GI50] CHOK1 GS) is < 0.13 µM; in the data set with CHOK1 cells (CHO-K1, read-out: [GI50] CHOK1), 0.2 µM; with CHOZN 6 cells, 1.1 µM; with CHOZN 10 cells it was 1.05 µM; in the data set with CHO cells (CHO), ≤ 1.1 µM. The “Color change as measured by ΔE* in water” value in data set [1] is listed as “significant color change”. For the same molecule, in [2], the “Color change as measured by ΔE* in feed” value was “significant color change”. Moreover, the “toxicity against cancerous and non-cancerous human cell lines” value in data set [4] was “low micromolar toxicity”.

The values are drawn from PMC8228365, “Degradation Products of Tryptophan in Cell Culture Media: Contribution to Color and Toxicity” (International Journal of Molecular Sciences, 2021).
